This is an account of results in ChEMBL document CHEMBL3880439, “Cyclopentanone and cyclopentanone derivatives as potent activators of HSF-1” (2004).

Data set [1] in a line: Cytotoxicity against African green monkey 37RC cells by microscopic method. The class given is cell-based. The conditions noted are these: chlorocebus aethiops.
The nature of data set [2]: Cytotoxicity against human HeLa cells incubated for 8 hrs measured after 6 hrs by Alamar blue assay. Type of data set: cell-based. The conditions noted are these: read-out: LC50. For orientation: The colour change of resazurin is a common sign of viable cells or microbes.
Data set [3] addresses Heat shock factor protein (Homo sapiens) (UniProt Q00613+Q03933+Q9ULV5). The experiment in a line: Activation of HSF in human HeLa cell clone 13B after 8 hrs by luciferase reporter gene assay. Type of data set: cell-based. On the technique in general: Reporter assays use an easily measured gene product as a stand-in for the process of interest.
A short description of data set [4]: Cytotoxicity against African green monkey 37RC cells incubated for 8 hrs measured after 6 hrs by neutral red assay. As to conditions: chlorocebus aethiops, read-out: LC50. Type of data set: cell-based.
The test system of a further data set is Respirovirus muris. The experiment in a line: Antiviral activity against Sendai virus infected in African green monkey 37RC cells assessed as inhibition of viral replication at 24 hrs by haemagglutinin titration method. The conditions noted are these: read-out: ID50 (the source's name). The class given is functional.
Data set [5] is described as follows: Toxicity in iv dosed anaesthetized rat assessed as decrease in blood pressure administered as infusion. Type of data set: organism-based. The conditions noted are these: in vivo.

Where only a bound is given, the exact number is not on record here.

On to `O=C1C=CC(NC(=O)c2ccccc2)C1` (configuration not stated), for which, in data set [1], the TD100 stood at 100 µM. For the same compound, the CC50 at 8 h was > 800 µM in data set [2] and 59 µM in data set [4]. This compound showed an AC200 in data set [3] of 51 µM. In addition, the IC50 in the data set on Respirovirus muris turned out to be 20 µM.

As to `CC(C)(C)OC(=O)N[C@@H](CS[C@@H]1CC(=O)/C(=C/c2ccccc2)[C@H]1NC(=O)OC(C)(C)C)C(=O)O`, the AC200 in data set [3] was < 6.2 µM. For the same compound, in data set [4], the CC50 at 8 h is 25 µM.

As for `CCCCC1C=CC(=O)/C1=C/C1CC1` (configuration not stated), the CC50 at 8 h in data set [2] was found to be 239 µM. Besides, the AC200 in data set [3] was determined as 8 µM.

The compound `CCCCC1C=CC(=O)/C1=C/CC(C)C` (configuration not stated) came in with a TD100 in data set [1] of 50 µM. In addition, the CC50 at 8 h in data set [2] was 227 µM. Besides, in data set [3], the AC200 was 13 µM. In addition, the IC50 with Respirovirus muris was 0.3 µM.

In the case of `CC(C)/C=C1/C(=O)C=C[C@@H]1NC(=O)OC(C)(C)C`, in data set [1], the TD100 is 50 µM. Moreover, the CC50 at 8 h in data set [2] is > 800 µM; in data set [4], 4 µM. The same compound gave an AC200 in data set [3] of 1.8 µM. In the data set with Respirovirus muris, the IC50 is 1 µM.

For the compound `O=C1C=CC(NC(=O)CCl)C1` (configuration not stated), in data set [3], the AC200 is < 6.2 µM. Moreover, the CC50 at 8 h in data set [4] is 79 µM.

Consider `CCCCCC/C=C1/C(=O)C=CC1C` (configuration not stated), for which, in data set [2], the CC50 at 8 h worked out at 234 µM. The AC200 in data set [3] was < 6.2 µM.

Take `CCCCC/C=C1/C(=O)C=CC1C` (configuration not stated): the CC50 at 8 h in data set [2] was > 800 µM. In addition, the AC200 in data set [3] was > 100 µM.

`O=C1C[C@H](Sc2ccc3ccccc3c2)[C@H](NC(=O)Oc2ccccc2)C1` gave an AC200 in data set [3] of 28 µM. The CC50 at 8 h in data set [4] turned out to be 183 µM.

In turn, `CC(C)/C=C1\C(=O)C=CC1NC(=O)c1ccccc1` (configuration not stated) yielded a TD100 in data set [1] of 10 µM. Besides, the CC50 at 8 h in data set [2] was 50 µM; in data set [4], 4 µM. The AC200 in data set [3] was < 6.2 µM. Further, the IC50 with Respirovirus muris amounted to 0.3 µM.

As to `COC(=O)[C@H](CS[C@@H]1CC(=O)C[C@H]1NC(=O)Oc1ccccc1)NC(=O)OC(C)(C)C`, in data set [3], the AC200 was 13 µM. The CC50 at 8 h in data set [4] was found to be 76 µM.

With `CC(C)/C=C1/C(=O)C=CC1C` (configuration not stated), in data set [2], the CC50 at 8 h is > 800 µM. In addition, in data set [3], the AC200 amounted to 13 µM.

For `COC(=O)[C@H](CSC1CC(=O)/C(=C/C(C)C)C1C)NC(=O)OC(C)(C)C` (some centres not stated), the CC50 at 8 h in data set [2] is > 800 µM. In addition, the AC200 in data set [3] turned out to be 18 µM.

In the case of `CC(C)(C)OC(=O)NC1C=CC(=O)/C1=C/c1ccccc1` (configuration not stated), in data set [1], the TD100 stood at 10 µM. Also, the CC50 at 8 h in data set [2] is > 800 µM; in data set [4] it was 33 µM. Moreover, the AC200 in data set [3] is 1.8 µM. Further, in the data set on Respirovirus muris, the IC50 amounted to 0.6 µM.

For `CCCCC[C@H](O)/C=C/[C@H]1C=CC(=O)[C@@H]1CCCCCCC(=O)O` [PROSTAGLANDIN A1], the Activity result in data set [5] is “Toxic”.

As to `CC(C)/C=C1/C(=O)C=C[C@H]1NC(=O)OC(C)(C)C`, the TD100 in data set [1] is 10 µM. Moreover, the CC50 at 8 h in data set [2] is > 800 µM; in data set [4] it was 4 µM. The same compound registered an AC200 in data set [3] of 5 µM. Moreover, the IC50 in the data set on Respirovirus muris amounted to 0.4 µM.

With `O=C1C=CC(NC(=O)Oc2ccccc2)C1` (configuration not stated), the AC200 in data set [3] was found to be 10 µM. The CC50 at 8 h in data set [4] amounted to 74 µM.

With `CCCCC[C@H](O)/C=C/[C@H]1[C@H](O)CC(=O)[C@@H]1CCCCCCC(=O)O` [ALPROSTADIL], in data set [5], the Activity entry is “Toxic”.

On to `CC(C)(C)OC(=O)NC1C=CC(=O)C1` (configuration not stated), for which the TD100 in data set [1] came out at 100 µM. In addition, the CC50 at 8 h in data set [2] was > 800 µM. In data set [3], this compound gave an AC200 of 51 µM. For the same compound, the IC50 with Respirovirus muris is 20 µM.

As for `C[C@H]1C=CC(=O)/C1=C/c1ccc([N+](=O)[O-])cc1`, the CC50 at 8 h in data set [2] was > 800 µM. In addition, in data set [3], the AC200 was determined as 2 µM.

Turning to `CCOC(=O)N(C(=O)OC(C)(C)C)C1C=CC(=O)C1` (configuration not stated), in data set [3], the AC200 was 18 µM. Besides, in data set [4], the CC50 at 8 h came to 233 µM.

As for `O=C1C=CC(Nc2ccccc2)C1` (configuration not stated), the CC50 at 8 h in data set [2] was > 800 µM. Besides, the AC200 in data set [3] was 27 µM.

`CC(C)(C)OC(=O)NC1C=CC(=O)/C1=C/c1ccc(Cl)cc1` (configuration not stated): the TD100 in data set [1] is 10 µM. Moreover, the figures for the CC50 at 8 h in data set [2] and in data set [4] were > 800 µM and 3.4 to 72 µM, respectively. This compound also showed an AC200 in data set [3] of 2 µM. Besides, the IC50 in the data set with Respirovirus muris was 0.6 µM.

On to `CC1C=CC(=O)/C1=C/c1ccccc1` (configuration not stated), for which the TD100 in data set [1] was 50 µM. For the same compound, in data set [2], the CC50 at 8 h worked out at 314 µM. The AC200 in data set [3] was 3 µM. Besides, in the data set with Respirovirus muris, the IC50 came to 0.9 µM.

Take `Cc1cc(C)c(/C=C2/C(=O)C=C[C@@H]2NC(=O)OC(C)(C)C)c(C)c1`: the AC200 in data set [3] is < 6.2 µM. The CC50 at 8 h in data set [4] stood at 25 µM.

As for `CC(C)/C=C1/C(=O)C=CC1NC(=O)OC(C)(C)C` (configuration not stated), the TD100 in data set [1] worked out at 50 µM. The CC50 at 8 h in data set [2] is > 800 µM; in data set [4] it was 4 µM. Further, in data set [3], the AC200 stood at 2.8 µM. In addition, in the data set with Respirovirus muris, the IC50 worked out at 1 µM.

Turning to `Cc1ccc(S(=O)(=O)NC(=O)OC2C=CC(=O)C2)cc1` (configuration not stated), the CC50 at 8 h in data set [2] was > 800 µM. The same compound showed an AC200 in data set [3] of 13 µM.

Regarding `CCOC(=O)NC1C=CC(=O)C1` (configuration not stated), the AC200 in data set [3] is 49 µM. The CC50 at 8 h in data set [4] amounted to 104 µM.

In data set [1], `CCCCC1C=CC(=O)/C1=C/C(C)C` (configuration not stated) registered a TD100 of 10 µM. The CC50 at 8 h in data set [2] is 506 µM. The same compound showed an AC200 in data set [3] of 13 µM. In the data set on Respirovirus muris, the IC50 worked out at 0.3 µM.

Consider `O=C1C[C@@H](NC(=O)Oc2ccccc2)[C@H](Sc2ccc3ccccc3c2)C1`, for which the AC200 in data set [3] came out at 26 µM. In addition, in data set [4], the CC50 at 8 h stood at 113 µM.
